{
  "source": "paper PMC5054364",
  "about": "“Neuroprotective pentapeptide CN-105 improves functional and histological outcomes in a murine model of intracerebral hemorrhage” (Scientific Reports, 2016)",
  "key": {"[1]": {"system": "murine model of collagenase-induced ICH", "assay": "Brain water content (cerebral edema) after ICH", "format": "in vivo, C57BL/6J mice", "settings": "24 hours after injury, 0.05 mg/kg i.v. at 2, 6 and 24 hours post ICH, mean ± standard error, n = 6–8/group", "protocol": "Experiment 3. Brain water content. Brain water content was assessed at 24 hours post ICH in 8 saline- and 8 CN-105-treated animals. CN-105 or saline was given by tail vein injection at 2, 6, and 24 hours post ICH. Two animals randomized to CN-105 died at 4 and 6 hours post-ICH, and were excluded from further analyses.\n(§1) Intrastriatal collagenase injection was used to induce ICH in mice, as previously described. Briefly, the trachea was intubated after anesthesia induction with 4.6% isoflurane, and the lungs were mechanically ventilated with 1.5% isoflurane in a mixture of 30%/70% O2/N2. Rectal temperature was maintained at 37 °C ± 0.2 °C by circulating warm water in an underbody waterbed. The animal’s head was secured in a stereotactic frame, and a midline scalp incision was made. After exposing the skull, a burr hole was created 2.2 mm left lateral to bregma, and a 0.5 μL syringe needle (Hamilton, Reno, NV, USA) was advanced to a depth of 3 mm from cortex. Type IV-S Clostridial collagenase (Sigma, St. Louis, MO, USA) was injected over 2 minutes (0.075 U in 0.4 μL normal saline). […]\nMice were anesthetized and euthanized at 24 hours after ICH to coincide with the point of maximum inflammatory changes. […] Cerebral edema was expressed as water content, calculated as a percentage of wet weight ([wet weight - dry weight]/[wet weight] x 100)."}, "[2]": {"system": "murine model of collagenase-induced ICH", "assay": "Hemorrhage volume by SWI MRI after collagenase-induced ICH", "format": "in vivo, C57BL/6J mice", "settings": "mean ± standard error, n = 3–4/group", "protocol": "Experiment 2. Hematoma volume. Hemorrhage volume was assessed by magnetic resonance imaging (MRI) at 2 hours post ICH (before treatment) and 24 hours post ICH. 3 saline- and 3 CN-105-treated animals were perfused at 24 hours post ICH, and brain hematoxylin and eosin (H&E) staining was performed. CN-105 or saline was given by tail vein injection at 2, 6, and 24 hours post-ICH.\nas §1, with “saline). After closing the incision, animals were allowed to recover spontaneous ventilation, and were then extubated and given free access to food and water.” for “saline).”"}},
  "data": [
    {"substance": "Ac-VSRRR-NH2 [CN-105, Ac-VSRRR-amide]", "values": [
      {"measurement": "brain water content, contralateral hemisphere", "setting": "[1]; p = 0.64", "result": "78.70 ± 0.41", "unit": "%"},
      {"measurement": "brain water content, injured hemisphere", "setting": "[1]; vehicle 80.67 ± 0.26, p = 0.029", "result": "79.57 ± 0.38", "unit": "%"},
      {"measurement": "hemorrhage volume by SWI MRI at 24 hours post ICH", "setting": "[2]; 0.05 mg/kg i.v. tail vein at 2, 6 and 24 hours post-ICH, saline 10.77 ± 1.70, p = 0.82", "result": "10.14 ± 1.92", "unit": "mm^3"},
      {"measurement": "hematoma volume by MRI at 2 hours after ICH", "setting": "[2]; 2 hours after ICH induction, prior to treatment (baseline of the CN-105 group)", "result": "9.93 ± 1.88", "unit": "mm^3"}
    ]}
  ]
}
